Assay results as given in patent publication US10736320B2, “Pesticidally active polycyclic derivatives with 5-membered sulfur containing heterocyclic ring systems” (Syngenta Participations AG, priority 2015, dated 2020).

Experiments:
[1] = test system: Diabrotica balteata (corn root worm); assay: Insecticidal action against Diabrotica balteata (corn root worm), sprayed maize sprouts; type: in vivo; conditions: 96 h, application rate of 200 ppm, L2 larvae, 4 days after infestation
Method: Maize sprouts, placed on an agar layer in 24-well microtiter plates were treated with aqueous test solutions prepared from 10,000 ppm DMSO stock solutions by spraying. After drying, the plates were infested with L2 larvae (6 to 10 per well). The samples were assessed for mortality 4 days after infestation.

[2] = test system: Myzus persicae (green peach aphid); assay: Insecticidal action against Myzus persicae (green peach aphid), sprayed sunflower leaf discs; type: in vivo; conditions: foliar, 144 h, application rate of 200 ppm, aphid population of mixed ages, 6 days after infestation
Method: Sunflower leaf discs were placed on agar in a 24-well microtiter plate and sprayed with aqueous test solutions prepared from 10,000 ppm DMSO stock solutions. After drying, the leaf discs were infested with an aphid population of mixed ages. The samples were assessed for mortality 6 days after infestation.

[3] = test system: Plutella xylostella (diamond back moth); assay: Insecticidal action against Plutella xylostella (diamond back moth), treated artificial diet; type: in vivo; conditions: 120 h, application rate of 200 ppm, L2 larvae, 5 days after infestation, read-out: effect in at least one of the two categories (mortality or growth inhibition)
Method: 24-well microtiter plates with artificial diet were treated with aqueous test solutions prepared from 10,000 ppm DMSO stock solutions by pipetting. After drying, the plates were infested with L2 larvae (10 to 15 per well). The samples were assessed for mortality and growth inhibition in comparison to untreated samples 5 days after infestation.

[4] = test system: Spodoptera littoralis (Egyptian cotton leaf worm); assay: Insecticidal action against Spodoptera littoralis (Egyptian cotton leaf worm), sprayed cotton leaf discs; type: in vivo; conditions: foliar, 72 h, application rate of 200 ppm, L1 larvae, 3 days after infestation, read-out: control (at least one of mortality, anti-feedant effect, and growth inhibition)
Method: Cotton leaf discs were placed on agar in 24-well microtiter plates and sprayed with aqueous test solutions prepared from 10,000 ppm DMSO stock solutions. After drying the leaf discs were infested with five L1 larvae. The samples were assessed for mortality, anti-feedant effect, and growth inhibition in comparison to untreated samples 3 days after infestation. Control of Spodoptera littoralis by a test sample is when at least one of mortality, anti-feedant effect, and growth inhibition is higher than the untreated sample.

[5] = test system: Spodoptera littoralis (Egyptian cotton leaf worm); assay: Insecticidal action against Spodoptera littoralis (Egyptian cotton leaf worm), uptake by lettuce roots from agar; type: in vivo; conditions: 144 h, test rate of 12.5 ppm, 6 days after infestation, read-out: effect in at least one of the three categories (mortality, anti-feedancy, or growth inhibition)
Text: Test compounds were applied by pipette from 10,000 ppm DMSO stock solutions into 24-well plates and mixed with agar. Lettuce seeds were placed on the agar and the multi well plate was closed by another plate which contains also agar. After 7 days the roots have absorbed the compound and the lettuce has grown into the lid plate. The lettuce leafs were now cut off into the lid plate. Spodoptera eggs were pipetted through a plastic stencil on a humid gel blotting paper and the plate closed with it. The samples were assessed for mortality, anti-feedant effect and growth inhibition in comparison to untreated samples 6 days after infestation.

| melting point | Structure (SMILES) | mortality at 200 ppm [1] | percent effect (mortality or growth inhibition) at 200 ppm [3] | mortality at 200 ppm [4] | also measured |
| --- | --- | --- | --- | --- | --- |
| 228 to 230 °C | CCS(=O)(=O)c1cc(C(F)(F)F)cnc1-c1ncc(-c2ccc(C(F)(F)F)nc2)s1 [Compound P15, 2-[3-ethylsulfonyl-5-(trifluoromethyl)-2-pyridyl]-5-[6-(trifluoromethyl)-3-pyridyl]thiazole] | – | – | – | – |
| – | CCS(=O)(=O)c1cc(C(F)(F)F)ccc1-c1nnc(-c2cncc(C(F)(F)F)c2)s1 [Compound P4, 2-[2-ethylsulfonyl-4-(trifluoromethyl)phenyl]-5-[5-(trifluoromethyl)-3-pyridyl]-1,3,4-thiadiazole] | ≥ 80% | ≥ 80% | ≥ 80% | mortality at 200 ppm [2]: ≥ 80%; percent control (mortality, anti-feedancy or growth inhibition) at 12.5 ppm [5]: ≥ 80% |
| – | CCS(=O)(=O)c1cc(C(F)(F)F)cnc1-c1ncc(-c2cncc(C(F)(F)F)c2)s1 [Compound P14, 2-[3-ethylsulfonyl-5-(trifluoromethyl)-2-pyridyl]-5-[5-(trifluoromethyl)-3-pyridyl]thiazole] | – | – | ≥ 80% | – |
| – | CCS(=O)(=O)c1cc(C(F)(F)F)ccc1-c1nnc(-c2ccc(C(F)(F)F)nc2)s1 [Compound P1, 2-[2-ethylsulfonyl-4-(trifluoromethyl)phenyl]-5-[6-(trifluoromethyl)-3-pyridyl]-1,3,4-thiadiazole] | ≥ 80% | ≥ 80% | ≥ 80% | – |
| 151 to 153 °C | CCSc1cc(C(F)(F)F)cnc1-c1nnc(-c2cncc(C(F)(F)F)c2)s1 [Compound P5, 2-[3-ethylsulfanyl-5-(trifluoromethyl)-2-pyridyl]-5-[5-(trifluoromethyl)-3-pyridyl]-1,3,4-thiadiazole] | – | – | – | – |
| – | CCS(=O)(=O)c1cc(C2CC2)cnc1-c1nnc(-c2cc(C(F)(F)F)ccn2)s1 [Compound P18, 2-(5-cyclopropyl-3-ethylsulfonyl-2-pyridyl)-5-[4-(trifluoromethyl)-2-pyridyl]-1,3,4-thiadiazole] | ≥ 80% | ≥ 80% | ≥ 80% | – |
| 173 to 175 °C | CCS(=O)(=O)c1cc(C(F)(F)F)cnc1-c1ncc(-c2cc(C(F)(F)F)ccn2)s1 [Compound P12, 2-[3-ethylsulfonyl-5-(trifluoromethyl)-2-pyridyl]-5-[4-(trifluoromethyl)-2-pyridyl]thiazole] | – | – | – | – |
| – | CCS(=O)(=O)c1ccc(C2CC2)nc1-c1nnc(-c2cncc(C(F)(F)F)c2)s1 [Compound P20, 2-(6-cyclopropyl-3-ethylsulfonyl-2-pyridyl)-5-[5-(trifluoromethyl)-3-pyridyl]-1,3,4-thiadiazole] | ≥ 80% | ≥ 80% | ≥ 80% | – |
| – | CCS(=O)(=O)c1ccc(-c2ncccn2)nc1-c1nnc(-c2cncc(C(F)(F)F)c2)s1 [Compound P17, 2-(3-ethylsulfonyl-6-pyrimidin-2-yl-2-pyridyl)-5-[5-(trifluoromethyl)-3-pyridyl]-1,3,4-thiadiazole] | ≥ 80% | ≥ 80% | – | – |
| 193 to 195 °C | CCS(=O)(=O)c1cc(C(F)(F)F)cnc1-c1nnc(-c2ccc(C(F)(F)F)nc2)s1 [Compound P21, 2-[3-ethylsulfonyl-5-(trifluoromethyl)-2-pyridyl]-5-[6-(trifluoromethyl)-3-pyridyl]-1,3,4-thiadiazole] | – | – | – | – |
| – | CCS(=O)(=O)c1cc(C(F)(F)F)ccc1-c1ncc(-c2ccc(C(F)(F)F)nc2)s1 [Compound P8, 2-[2-ethylsulfonyl-4-(trifluoromethyl)phenyl]-5-[6-(trifluoromethyl)-3-pyridyl]thiazole] | ≥ 80% | ≥ 80% | ≥ 80% | – |
| – | CCS(=O)(=O)c1cc(C2CC2)cnc1-c1nnc(-c2cncc(C(F)(F)F)c2)s1 [Compound P19, 2-(5-cyclopropyl-3-ethylsulfonyl-2-pyridyl)-5-[5-(trifluoromethyl)-3-pyridyl]-1,3,4-thiadiazole] | ≥ 80% | ≥ 80% | ≥ 80% | mortality at 200 ppm [2]: ≥ 80% |
| – | CCS(=O)(=O)c1cc(C(F)(F)F)ccc1-c1ncc(-c2cncc(C(F)(F)F)c2)s1 [Compound P9, 2-[2-ethylsulfonyl-4-(trifluoromethyl)phenyl]-5-[5-(trifluoromethyl)-3-pyridyl]thiazole] | ≥ 80% | – | ≥ 80% | – |
| 110 to 112 °C | CCS(=O)(=O)c1cc(C(F)(F)F)cnc1-c1nccs1 [Compound P11, 2-[3-ethylsulfonyl-5-(trifluoromethyl)-2-pyridyl]thiazole] | – | – | – | – |
| – | CCS(=O)(=O)c1cc(C(F)(F)F)cnc1-c1nnc(-c2cncc(C(F)(F)F)c2)s1 [Compound P6, 2-[3-ethylsulfonyl-5-(trifluoromethyl)-2-pyridyl]-5-[5-(trifluoromethyl)-3-pyridyl]-1,3,4-thiadiazole] | ≥ 80% | ≥ 80% | ≥ 80% | – |
| 208 to 210 °C | CCS(=O)(=O)c1cc(C(F)(F)F)cnc1-c1ncc(-c2ccc(C(F)(F)F)cn2)s1 [Compound P13, 2-[3-ethylsulfonyl-5-(trifluoromethyl)-2-pyridyl]-5-[5-(trifluoromethyl)-2-pyridyl]thiazole] | – | – | – | – |
| 143 to 145 °C | CCSc1cc(C(F)(F)F)ccc1-c1nnc(-c2cncc(C(F)(F)F)c2)s1 [Compound P3, 2-[2-ethylsulfanyl-4-(trifluoromethyl)phenyl]-5-[5-(trifluoromethyl)-3-pyridyl]-1,3,4-thiadiazole] | – | – | – | – |
| – | CCSc1cc(C(F)(F)F)ccc1-c1ncc(-c2ccc(C(F)(F)F)nc2)s1 [Compound P7, 2-[2-ethylsulfanyl-4-(trifluoromethyl)phenyl]-5-[6-(trifluoromethyl)-3-pyridyl]thiazole] | – | ≥ 80% | – | – |
| 170 to 172 °C | CCSc1cc(C(F)(F)F)ccc1-c1nnc(-c2ccc(C(F)(F)F)nc2)s1 [Compound P2, 2-[2-ethylsulfanyl-4-(trifluoromethyl)phenyl]-5-[6-(trifluoromethyl)-3-pyridyl]-1,3,4-thiadiazole] | – | – | – | – |
| – | CCS(=O)(=O)c1cc(-c2ncccn2)cnc1-c1nnc(-c2cncc(C(F)(F)F)c2)s1 [Compound P16, 2-(3-ethylsulfonyl-5-pyrimidin-2-yl-2-pyridyl)-5-[5-(trifluoromethyl)-3-pyridyl]-1,3,4-thiadiazole] | ≥ 80% | – | – | – |
| – | CCS(=O)(=O)c1cc(C(F)(F)F)cnc1-c1nnc(-c2cc(C(F)(F)F)ccn2)s1 [Compound P10, 2-[3-ethylsulfonyl-5-(trifluoromethyl)-2-pyridyl]-5-[4-(trifluoromethyl)-2-pyridyl]-1,3,4-thiadiazole] | ≥ 80% | – | ≥ 80% | – |
